Experimental findings from ChEMBL document CHEMBL3507680, “University of Dundee, Gates Library screen for HepG2 cell viability” are described below.

Molecules are shown by their SMILES.

The data set in a line: Human HepG2 cell viability assay in 384 well format. The following applies: HepG2 cells, read-out: Inhibition. Set-up: dose 125 nL, time 70.5 hour; concentration not given beside the values. Type of data set: toxicity, cell-based.
`O=C(Nc1c(F)cccc1F)N1CC(c2nc(C3CC3)no2)C1`: the cytotoxicity at 70.5 h was -6.67%. Regarding `CCS(=O)(=O)N1CC(c2nc(-c3cccs3)no2)C1`, the cytotoxicity at 70.5 h was -2.02%. In the case of `COc1ncccc1C(=O)N1CC(c2nc(-c3cccs3)no2)C1` it was -5.8%; in that of `CN(C)S(=O)(=O)N1CC(c2nc(-c3ccsc3)no2)C1`, -6.06%. Turning to `O=C(c1ccccc1F)N1CC(c2nc(-c3ccc[nH]c3=O)no2)C1`, the cytotoxicity at 70.5 h is -2.53%. For `N#Cc1cccc(C(=O)N2CC(c3nc(-c4ccc[nH]c4=O)no3)C2)c1` the value was -1.92%; for `COc1ncccc1C(=O)N1CC(c2nc(-c3ccco3)no2)C1`, 15.9%. In the case of `O=C1CCCN1C(CNS(=O)(=O)C1CC1)Cc1cccc(F)c1` (configuration not stated) it was -15.5%.

On to `CCc1oc(C(=O)N2CC[C@H]3CC[C@@H](C2)N3)cc1CN(CC)CC`, for which the cytotoxicity at 70.5 h was -8.75%. For `CCC[C@@H]1CN(Cc2ccc(C(F)(F)F)nc2)C[C@H]1NS(C)(=O)=O` the value was 11.1%; for `CCN(CC)S(=O)(=O)N1CCC(c2nccn2Cc2ccccn2)CC1`, 12.4%; for `NCC(=O)N1CCCC1c1ccc(C(=O)NCc2ccoc2)s1` (configuration not stated), -2.34%. Consider `O=C1N(CCC2CCCCC2)CCCC1(O)CNCCc1ccccc1` (configuration not stated), for which the cytotoxicity at 70.5 h came out at 0.277%.

`CN(c1ncccc1CNC(=O)c1cscn1)C1CCCCC1`: the cytotoxicity at 70.5 h was 0.847%. With `O=C(c1cn2ccsc2n1)N1CCOCC(O)(CN2CCCC2)C1` (configuration not stated), the cytotoxicity at 70.5 h was found to be 1.73%. Take `Cc1cc(N2CCCN(C(C(=O)O)c3cccc(C)c3F)CC2)ccn1` (configuration not stated): the cytotoxicity at 70.5 h is 3.14%. For `C[C@@H]1CN(C2CCN(c3ccccc3)CC2)CC[C@@]1(O)C1CCOCC1` the value was -3.71%; for `Cc1ncc(CN2CCN(C(=O)C3CCC3)[C@@H]3CS(=O)(=O)C[C@@H]32)cn1`, -16.2%. For `O=C(CN1CCCCCC1)NCc1cccnc1Oc1ccccc1` the value was -2.72%; for `CCOC(=O)N1CCCn2nc(C(=O)NCCN(C)C)cc2C1`, -6.9%; for `Cn1nccc1C(=O)N1CCC(n2cc(-c3ccsc3)nn2)CC1`, -3.85%. For `CN(C)CC1(O)CCN(C(=O)c2ccc(-n3cnnc3)cc2Cl)C1` (configuration not stated) the value was 7.55%; for `COCCCN1CC2(CCCN(c3ncnc4[nH]ccc34)C2)CCC1=O` (configuration not stated), -6.33%.

As to `Cc1nccn1CCCC(=O)N1CCC2(CCC(=O)N(C(C)C)C2)CC1`, the cytotoxicity at 70.5 h was -4.22%. In the case of `CN1C[C@H]2CNC[C@@]2(C(=O)N2CCN(c3ncccc3C#N)CC2)C1` it was -6.13%; in that of `Cc1ccc(C(=O)N2C[C@@H](C(=O)O)[C@H](c3ccncc3)C2)cc1F`, -5.6%; in that of `O=C(CN1CCOC1=O)N(Cc1ccccc1)Cc1nccs1`, -14.3%. In the case of `Cc1noc(C)c1CN1C(=O)[C@H]2CC[C@@H]1CN(Cc1cccc(O)c1)C2` it was 5.47%. Regarding `O=C(CN1CCOCS1(=O)=O)NCCc1ccc(Cl)cc1`, the cytotoxicity at 70.5 h is -9.99%. Consider `CC1CNC(=O)CCN1Cc1cc(O)c2cccc(F)c2n1` (configuration not stated), for which the cytotoxicity at 70.5 h is -6.4%.

For `O=C(CCCc1ccc(Cl)cc1)N1CCN(C(=O)c2ccc[nH]2)CC1`, the cytotoxicity at 70.5 h turned out to be 1.45%.

In the case of `COc1ccnc(N2CCC3(CCCN(CC4CC4)C3=O)C2)n1` (configuration not stated), the cytotoxicity at 70.5 h is -6.47%.

For the compound `CCN1CCN(C[C@@H]2CN(c3ncccc3Cl)C[C@@H]2CO)CC1`, the cytotoxicity at 70.5 h is -3.91%. For `COc1cc(Oc2ccc(C(N)=O)cn2)ccc1CN1CCCC1` the value was -6.89%; for `Cc1ccc(OCc2occc2C(=O)N2CC[C@H](CO)[C@@H](O)C2)cc1`, -8.34%. In the case of `CCS(=O)(=O)N(C)CCCNCc1c(C)nn(C)c1N(C)C` it was -2.24%. In the case of `Cc1nc(CC(=O)N2CCc3nnc(N(C)C)cc3C2)cs1` it was 0.153%. As for `Cc1nn(C)c(N(C)C)c1CNCCCN(C(C)C)S(C)(=O)=O`, the cytotoxicity at 70.5 h turned out to be 8.55%.

In the case of `CCS(=O)(=O)NCCCNCc1c(C)nn(C)c1N(C)C`, the cytotoxicity at 70.5 h amounted to 21.5%. In the case of `Cc1cc(C(=O)O)cc(S(=O)(=O)Nc2ccc3c(c2)OCCCO3)c1C` it was -5.74%; in that of `CC(C)CN(Cc1nc2c(cnn2C)c(=O)[nH]1)CC(C)C`, -5.64%; in that of `CCC(C)N(CCOC)Cc1nc2c(cnn2C)c(=O)[nH]1` (configuration not stated), 17.1%.

As to `CN(CCC(F)(F)F)C(=O)c1nc(S(C)(=O)=O)n2ccccc12`, the cytotoxicity at 70.5 h worked out at 25.3%. Take `CCCC(C)N(C)C(=O)c1nc(S(C)(=O)=O)n2ccccc12` (configuration not stated): the cytotoxicity at 70.5 h was 0.813%. In the case of `CC(C)CC(C)N(C)C(=O)c1nc(S(C)(=O)=O)n2ccccc12` (configuration not stated) it was 2.74%; in that of `CS(=O)(=O)c1cccc(C(=O)N2CCCC(n3cccn3)C2)c1` (configuration not stated), 2.98%; in that of `NS(=O)(=O)Cc1cccc(C(=O)N2CCCC(n3cccn3)C2)c1` (configuration not stated), 4.57%. Turning to `CN(C)c1cc2c(nn1)CCN(C(=O)Cc1ccc3c(c1)CCC3)C2`, the cytotoxicity at 70.5 h is -1.75%. In the case of `CCc1ccc(C(=O)O)cc1S(=O)(=O)Nc1ccc2c(c1)OCCO2`, the cytotoxicity at 70.5 h was 4.02%. Regarding `NC(=O)c1cccc(OCC(=O)NS(=O)(=O)c2ccc3c(c2)CCC3)c1`, the cytotoxicity at 70.5 h is -0.191%. In the case of `COCc1nc(C(=O)NS(=O)(=O)c2cc(C)ccc2C)cs1` it was 3.09%. In the case of `Cc1occc1C(=O)N1CCCN(Cc2nccn2C(C)C)CC1` it was 20.3%. `Cc1ccc(C(=O)N2CCN(Cc3cccs3)CC2)c(=O)[nH]1`: the cytotoxicity at 70.5 h was -3.21%. As for `CCC(=O)NCC(=O)NCC1CCN(c2cc(Cl)ccc2C)C1` (configuration not stated), the cytotoxicity at 70.5 h is -1.96%. Take `NC(=O)CN1CCN(C(=O)c2cc(Cl)cc3cccnc23)CC1`: the cytotoxicity at 70.5 h turned out to be 19.4%. In the case of `Cc1nccc(C(=O)N2CCCN(Cc3nccn3C(C)C)CC2)n1` it was -4.19%. In the case of `CCOc1ccc(Cl)c(C(=O)NCCC(=O)Nc2ccncc2)n1` it was 0.642%; in that of `Cc1ccc(Cl)cc1N1CCC(CNC(=O)Cn2cccn2)C1` (configuration not stated), 5.6%; in that of `Cc1cc(C(=O)N2CCCN(Cc3nccn3C(C)C)CC2)no1`, -5.9%. Turning to `CC(C)c1nc(C2CCCN2CCS(=O)(=O)c2ccccc2)no1` (configuration not stated), the cytotoxicity at 70.5 h stood at 2.5%. In the case of `CCc1nc(C2CCCN2Cc2ccn(C)c(=O)c2)no1` (configuration not stated) it was -2.34%; in that of `Cc1nc(C)n(C2CCCN(C(=O)c3cc(C4CC4)on3)C2)n1` (configuration not stated), 1.36%. Consider `Cc1nc(C2CCCN2Cc2ccn(C)c(=O)c2)no1` (configuration not stated), for which the cytotoxicity at 70.5 h was found to be 0.568%. On to `NC(=O)c1cc(C2CCCN(CCOc3cccc(F)c3)C2)n[nH]1` (configuration not stated), for which the cytotoxicity at 70.5 h was found to be 13%.

Take `O=C1CCc2cc(NC(=O)C3CCCN3c3nccs3)ccc2N1` (configuration not stated): the cytotoxicity at 70.5 h is -1.9%. In the case of `CCOc1ccc(Cl)c(C(=O)NC)n1` it was 0.647%; in that of `O=C(NCCn1ccnc1)N1CCCC1c1ccc2c(c1)OCCO2` (configuration not stated), -4.48%; in that of `Cc1noc(C2CCN(C(=O)CCc3ccccn3)CC2)n1`, -4.44%. `CC(C)n1ccnc1CN1CCCN(C(=O)c2cnn(C)c2)CC1`: the cytotoxicity at 70.5 h was -0.464%. For `CC(C)n1ccnc1CN1CCCN(C(=O)c2cnc[nH]2)CC1` the value was -1.35%. In the case of `COc1ccc(C2CCCN2C(=O)NCCn2ccnc2)cc1OC` (configuration not stated) it was 0.318%.

As for `O=C(NCCn1ccnc1)N1CCCC1c1cccs1` (configuration not stated), the cytotoxicity at 70.5 h amounted to 2.2%.

Turning to `Cc1cc(C(=O)N2CCCC(n3cncn3)C2)no1` (configuration not stated), the cytotoxicity at 70.5 h was -0.711%.

As to `Cn1cnc2c1CCN(Cc1csc(-c3ccco3)n1)C2`, the cytotoxicity at 70.5 h is 15.3%. In the case of `COc1cccc(-n2nnc(C(=O)N3CCC(C(N)=O)CC3)c2C)c1`, the cytotoxicity at 70.5 h is -8.91%. In the case of `CC(C)CN1CC(C(=O)NCc2ccnc(-n3cccn3)c2)CC1=O` (configuration not stated) it was 12.8%; in that of `COc1cccc(-n2nnc(C(=O)N3CCCCCC3)c2C)c1`, -12.9%; in that of `CCC1c2ccsc2CCN1C(=O)NCc1cccnc1N(C)C` (configuration not stated), 13%.

Regarding `CC(Nc1cccc(CN2CCOC2=O)c1)C(=O)Nc1ccccc1` (configuration not stated), the cytotoxicity at 70.5 h was -22.1%.

As for `Cc1cccc(NC(=O)C(C)Nc2cccc(CN3CCOC3=O)c2)c1` (configuration not stated), the cytotoxicity at 70.5 h is -7.24%. Consider `Cn1ccc(CN2CCC(CC(=O)NC3CCCC3)CC2)cc1=O`, for which the cytotoxicity at 70.5 h was 15%. Take `Cn1cc(NC(=O)N2CCC(Cc3ccccc3)CC2)ccc1=O`: the cytotoxicity at 70.5 h is -2.61%.

Regarding `CN(C)c1ccc(C(=O)N2CCCN(Cc3cnn(C)c3)CC2)nn1`, the cytotoxicity at 70.5 h is -8.42%. Regarding `c1cc(COc2ccc(CNC3CCc4ncnn4C3)cc2)ccn1` (configuration not stated), the cytotoxicity at 70.5 h is -2.99%. For `Cc1cc(C)n(C2CCCN(C(=O)Cc3cn4ccsc4n3)C2)n1` (configuration not stated) the value was -13.1%; for `Cc1cnn(CC2CCCN2C(=O)c2ccc(-n3cccn3)nc2)c1` (configuration not stated), -1.39%. As for `Cc1cnn(CC2CCCCN2C(=O)c2ccc(NC3CC3)nc2)c1` (configuration not stated), the cytotoxicity at 70.5 h was -4.98%. `c1cnnc(N2CCCC2CNCc2nc(-c3ccco3)no2)c1` (configuration not stated): the cytotoxicity at 70.5 h is -14.5%. In the case of `CCN(CC)c1ccc(C(=O)N2CCCC(n3cncn3)C2)cn1` (configuration not stated) it was -4.12%; in that of `CC(C)(C)c1nc(CC(=O)N2CCCC(n3cncn3)C2)cs1` (configuration not stated), -1.77%.

Consider `CNC(=O)c1ccc(C(=O)N2CCCCC2Cn2cc(C)cn2)cn1` (configuration not stated), for which the cytotoxicity at 70.5 h was -5.34%. `Cc1cnn(CC2CCCN2C(=O)c2ccc(OCC3CC3)nc2)c1` (configuration not stated): the cytotoxicity at 70.5 h is -6.47%. On to `c1ccc(COc2ccccc2CNC2CCc3ncnn3C2)cc1` (configuration not stated), for which the cytotoxicity at 70.5 h was -6.49%. For `c1csc(CN2CC(c3nc(-c4cnccn4)no3)C2)c1` the value was -4.66%. Take `c1cnc(-c2noc(C3CN(Cc4ccsc4)C3)n2)cn1`: the cytotoxicity at 70.5 h is -8.37%. With `CCOC(=O)CN1CC(c2nc(-c3ccsc3)no2)C1`, the cytotoxicity at 70.5 h was 0.957%. Take `O=C(CN1CC(c2nc(-c3ccco3)no2)C1)NCCc1ccccc1`: the cytotoxicity at 70.5 h was -11.2%.
